This is an account of results in PMC6482291, “Anticonvulsant Activity of Pterostilbene in Zebrafish and Mouse Acute Seizure Tests” (Neurochemical Research, 2019).

In data set [1] the test system is PTZ-induced seizure-like behavior in zebrafish larvae. In words: Larval zebrafish PTZ seizure assay, locomotor activity tracking. Format: in vivo, Danio rerio. The settings on record: 10 µM PTE, 2 h incubation, 20 mM PTZ; vs vehicle + PTZ. The procedure:
The locomotor activity of larvae was assessed as previously described. A single 117 hpf zebrafish larvae was placed in a 48-well plate (one larva per well) filled with 200 µl of vehicle or PTE solution (10 µM). Subsequently, larvae were incubated for 2 h, at 28.5 °C. Next, 100 µl of vehicle or PTZ was added to each well. Within 5 min, plates were positioned in an automated tracking device (ZebraBox, Viewpoint, Lyon, France) and larvae were tracked for 30 min, with a 5 min integration interval. All measurements were performed at the same daytime period. The […] distance (in millimeters) covered by each larva was recorded. Three independent experiments were done (n = 12/group) and the data were pooled together. […] The data were normalized against PTZ values.

In data set [2] the test system is PTZ-induced epileptiform discharges in zebrafish larvae. In words: Electrographic discharge assessment (LFP recordings from optic tectum) in zebrafish larvae exposed to PTZ. Format: in vivo, Danio rerio. The settings on record: 10 µM PTE, 2 h incubation, 20 mM PTZ, 20 min recording. The procedure: For local field potential (LFP) recordings, zebrafish larvae were incubated for 2 h, as described above. After incubation, larvae were exposed to vehicle or 20 mM PTZ for 5 min. Thereafter, larvae were immobilized in a thin layer of 2% low-melting-point agarose and the glass electrode (resistance […]) filled with artificial cerebrospinal fluid (124 mM NaCl, 2 mM KCl, 2 mM MgSO4, 2 Mm CaCl2, 1.25 mM KH2PO4, 26 mM NaHCO3, 10 mM glucose) was placed into the optic tectum (MultiClamp 700B amplifier, Digidata 1440A digitizer, Axon instruments, USA). Single recordings for each larva were performed for a period of 20 min. The discharges were analyzed according to the duration of spiking paroxysms and only those where the amplitude exceeded three times the background noise were taken into account. The data were analyzed with the aid of Clampfit 10.2 software (Molecular Devices Corporation, USA).

The test system of data set [3] is PTZ-induced seizures in mice. In words: Timed iv PTZ seizure threshold test in mice. Format: in vivo. The settings on record: for threshold for the first myoclonic twitch vs negative control: p < 0.001. On the procedure: Each mice was placed in the cylindrical restrainer and the needle (27G, 3/4 in., Sterican®, B. Braun Melsungen AG, Melsungen, Germany) was injected into the lateral tail vein. The needle was attached by the polyethylene drain (PE20RW, Plastic One Inc. Roanoke, VA, USA) with the syringe containing 1% solution of PTZ (Sigma–Aldrich, St. Louis, MO, USA) in water and the syringe was located in the infuse pomp (model Physio 22, Hugo Sachs Elektronik–Harvard Apparatus GmbH, March-Hugstetten, Germany). The correct placement of the needle in the vein was confirmed based on the presence of the blood in the drain and the needle was protected against displacement by a peace of adhesive tape. Following injection, mice were took out from the restrainer and placed in the Plexiglas box for observation. The PTZ solution was infused into the vein at a constant rate of 0.2 ml/min. The time intervals from the start of infusion of PTZ solution to the beginning of three kinds of seizures, i.e., the first myoclonic twitch, generalized clonus with loss of the righting reflex and forelimb tonic extension, were noted. Infusion of PTZ solution was stopped immediately after onset of the tonic seizures, which usually were lethal. If animal survived the test, it was euthanized immediately. The threshold dose of PTZ (in mg/kg body weight) for each kind of seizures was calculated according to the following formula: PTZmg/kg=infusion durations×infusion rateml/s×PTZ concentrationmg/ml/weightkg
Experimental groups consisted of 9–13 animals. The data obtained in the iv PTZ test are presented as the threshold dose of PTZ (in mg/kg) + standard error of the mean (SEM) needed to elicit the respective kind of seizures. The data were analyzed by one-way ANOVA followed by the Tukey’s multiple comparison test. Statistical significance was noted when p values were equal or lower than 0.05.

In data set [4] the test system is 6 Hz-induced psychomotor seizures in mice. In words: 6 Hz psychomotor seizure threshold test. Format: in vivo. The settings on record: 30 min before test, 95% confidence limits in brackets. An excerpt:
Psychomotor (limbic) seizures were induced by transcorneal stimulation (6 Hz, 0.2 ms rectangular pulse, 3 s duration) generated by a Grass S48 stimulator coupled with a constant current unit CCU1 (both from Grass Technologies, West Warwick, RI, USA). Before stimulation a drop of ocular anesthetic, 1% tetracaine hydrochloride solution, was applied into the animals’ corneas. The electrodes were soaked in saline to ensure the good electrical contact. During the stimulation animals were restrained manually and immediately after the stimulation were placed in a Plexiglas box for observation of presence or absence of the psychomotor seizures. These seizures were characterized by immobilization or stun, often associated with rearing, forelimb clonus, twitching of vibrissae and elevated tail (Straub-tail), lasting at least 10 s from the stimulation. Lack of the above symptoms or their cessation within 10 s from the stimulation was considered as absence of seizure activity.
In the present study two 6 Hz-induced psychomotor seizure tests were performed: (1) the 6 Hz psychomotor seizure threshold test which employed stimulation at varied current intensities, and (2) the 6 Hz psychomotor seizure test with supramaximal stimulation at 32 mA and 44 mA.
In the 6 Hz psychomotor seizures threshold test, threshold current intensity (CS50 in mA) was estimated in groups of 20 animals according to the above mentioned up-and-down method.

The next data set deals with mice. The experiment in a line: Forced swim test. The settings on record: PTE 50 to 200 mg/kg ip, data not shown. Format: in vivo. On the procedure:
The forced swim test was carried out according to the method described by Porsolt et al. to assess antidepressant properties of PTE. Mice were placed individually in a glass cylinder (25 cm high; 10 cm diameter) containing tap water to a depth of 11 cm. Water was maintained at temperature of 23–25 °C. Mice were permitted to swim for 6 min and duration of their immobility was recorded during the last 4 min of the test by a trained experimenter who was blinded to the treatment. Immobility time was recorded using cumulative stopwatches. Mouse was considered to be immobile when it was floating in the water without struggling and making no attempts to escape, it was making only these movements necessary to keep its head above the water. After each trial, the water in the cylinder was replaced with fresh water. Experimental groups consisted of 10 animals.
Data obtained in the forced swim test were expressed as the mean (in s) + SEM immobility time in each experimental group. Results were analyzed by one-way ANOVA.

The subject of data set [5] is maximal electroshock seizures. In words: MES test (supramaximal stimulation). Format: in vivo. The settings on record: ED50 could not be determined.
Details of data set [6]: method as in PMID 25047917. The settings on record: after oral administration; cited from earlier work.
For data set [7], the system named is GABA-induced chloride currents. Also noted: method as in PMID 24462176. The settings on record: cited from earlier work.

In the case of `COc1cc(/C=C/c2ccc(O)cc2)cc(OC)c1` [PTE, trans-3,5-dimethoxy-4′-hydroxy-trans-stilbene], the “PTZ-induced locomotor activity in zebrafish larvae” value in data set [1] is “significantly reduced”. The “mean duration of ictal-like discharges” value in data set [2] is reported as “statistically significant reduction”. Also, in data set [2] (vs vehicle), the “number of epileptiform discharges in the zebrafish brain” value is “significantly reduced” and the “total duration of epileptiform discharges in the zebrafish brain” value was “significantly reduced”. Further, the “threshold for the first myoclonic twitch vs negative control” value in data set [3] (PTE 100 mg/kg ip, 30 min before test) is “Statistically significant increases”. Also, the “threshold for the first myoclonic twitch vs negative control” value in data set [3] (PTE 200 mg/kg ip, 30 min before test) was “Statistically significant increases”. Moreover, in data set [3] (PTE 200 mg/kg ip, 30 min before test, p < 0.01), the “increase of threshold for generalized clonic seizures vs negative control” value is “over 45%”. The “threshold for tonic forelimb extension vs negative control” value in data set [3] (PTE 50 to 200 mg/kg ip, 30 min before test) is listed as “did not significantly affect”. Besides, the “time of highest anticonvulsant activity after ip administration (time-course effect)” value in data set [3] (iv PTZ test, data not shown) was found to be 30 min. Moreover, the “CS50 (psychomotor seizure threshold)” value in data set [4] (PTE 100 mg/kg ip, p < 0.01) is on record as 15.56 (14.18–17.08) mA. Further, the “CS50 (psychomotor seizure threshold)” value in data set [4] (PTE 200 mg/kg ip, p < 0.001) was 19.28 (17.15–21.66) mA. Besides, in the data set with mice, the “immobility time vs control” value is “did not significantly reduce”. In addition, the “anticonvulsant activity in the MES test” value in data set [5] is “lack of significant anticonvulsant activity”. Besides, in data set [6], the “brain concentration of PTE relative to pterostilbene-4’sulphate (main metabolite)” value was “nearly fivefold higher” and the “time of peak in brain tissue” value is recorded as 2 h. Also, the “effect on GABA-induced chloride currents” value in data set [7] was “enhances”.
